Where “and” joins values, the source holds several entries; their conditions need not be identical. Equal entries are not always repeated.
Tests used:
[1] = Particle size of jet-milled / spray-dried anhydrous DHEA-S (Malvern Mastersizer X, light microscope); type: physicochemical; conditions: for Mean particle size: spray dried, two batches
Experimental: Approximately 1 g sample was passed through the jet mill, once, and approximately 2 g sample were passed through the jet mill twice. […] The resulting solution was sonicated for 3 minutes and appeared fully dispersed. The dispersed solutions were tested on a Malvern Mastersizer X with a small volume sampler (SVS) attachment. One sample of dispersed material was tested 5 times. The median particle size or D (v, 0.5) of unmilled material was 52.56 μm and the % RSD (relative standard deviation) was 7.61 for the 5 values. The D (v, 0.5) for a single pass through the jet mill was 3.90 μm and the % RSD was 1.27, and the D (v, 0.5) from a double pass through the jet mill 3.25 μm and the % RSD was 3.10.
The solution was spray-dried with a B-191 Mini Spray-Drier (Buchi, Flawil, Switzerland) with an inlet temperature of 55° C., outlet temperature of 40° C., at 100% aspirator, at 10% pump, nitrogen flow at 40 mbar and spray flow at 600 units. The spray-dried product was suspended in hexane and Span85 surfactant added to reduce agglomeration. The dispersions were sonicated with cooling for 3-5 minutes for complete dispersion and the dispersed solutions tested on a Malvern Mastersizer X with a Small Volume Sampler (SVS) attachment. […] Visual examination by light microscope of the dispersions of each batch confirmed that spray drying produced small respirable size particles. The mean particle size was 2.4 μm and 2.0 μm for each batch, respectively.

[2] = Solid-state stability with and without lactose at 50° C. (HPLC, DHEA formation); type: physicochemical
Excerpt: These conditions were used to stress the formulation in order to predict its long-term stability results. […] The primary degradant is DHEA. […] The materials on accelerated storage become more cohesive with time as evidenced by clumping during sample weighing for chemical analysis. […] This is a considerable disadvantage since lactose is the most commonly used inhalation excipient for dry powder formulations. Continuing with the virtually anhydrous form would mean limiting formulations to neat powder or undertaking more comprehensive safety studies to use a novel excipient.

C[C@]12CC[C@H](OS(=O)(=O)[O-])CC1=CC[C@@H]1[C@@H]2CC[C@]2(C)C(=O)CC[C@@H]12.[Na+] [Anhydrous DHEA-S]
Median particle size D (v, 0.5) ([1]; double pass through the jet mill): 3.25 μm
Median particle size D (v, 0.5) ([1]; single pass through the jet mill): 3.90 μm
Mean particle size ([1]; Malvern Mastersizer X): 5.07±0.70 μm and 6.66±0.91 μm
Mean particle size ([1]; visual examination by light microscope): 2.4 μm and 2.0 μm
Median particle size D (v, 0.5) ([1]; unmilled material): 52.56 μm
DHEA % formed ([2]; 50° C., 1 week): 9.817%
DHEA % formed ([2]; 50° C., 2 weeks): 14.954%
DHEA % formed ([2]; 50° C., 4 weeks): 20.171%
DHEA % formed ([2]; Control, initial (Time=0)): 2.774%
DHEA % formed ([2]; Control, sealed, 25° C., 1 week): 2.694%
DHEA % formed ([2]; Control, sealed, 25° C., 2 weeks): 2.370%
DHEA % formed ([2]; Control, sealed, 25° C., 4 weeks): 2.666%

Reference: patent US20090274676A1, “COMBINATION OF DEHYDROEPIANDROSTERONE OR DEHYDROEPIANDROSTERONE-SULFATE WITH A PDE-4 INHIBITOR FOR TREATMENT OF ASTHMA OR CHRONIC OBSTRUCTIVE PULMONARY DISEASE” (priority 2003, published 2009)
